Source: patent US20260284030A1, “METHODS OF TREATING HEART FAILURE” (THE CHILDREN'S MEDICAL CENTER CORPORATION, priority 2022, published 2026)

Assays:
[1] = test system: DBA/1 J mice with CIA; experiment: Collagen induced arthritis (CIA) model, arthritis severity scoring; format: in vivo, mouse; conditions: for arthritis score: CIA mice, 10 mg/kg oral gavage once daily from day 30, n=8
Source text: (§1) DBA/1 J mice were purchased from Jackson Laboratory. All mice were kept specific pathogen free. Experimental protocols were approved by the Institutional Animal Care and Use Committee of Boston Children's Hospital (Protocol number: 20-01-4096R). To conduct a time-course study investigating onset and persistence of the cardiac dysfunction in DBA/1 J, the following groups were studied: DBA/1 J with CIA, DBA/1 J age-matched wild type, DBA/1 J with CIA treated with PAD4 inhibitor, DBA/1 J with CIA treated with 0.5% Methylcellulose (vehicle of the PAD4 inhibitor). The PAD4 specific inhibitor JBI-589 was provided by Jubilant Therapeutics (JBI-589, (R)-(3-aminopiperidin-1-yl)(2-(1-(4-fluorobenzyl)-1H-indol-2-yl)-3-methylimidazo[1,2-a]pyridin-7-yl)methanone). Mice received JBI-589 at a dose of 10 mg/kg via oral gavage for 26 consecutive days. JBI-589 was given in suspension formulation prepared using Tween-80 and 0.5% methyl cellulose. For the PAD4 inhibitor trial, mice were paired depending on their RA severity score and randomly allocated to treatment or control group. All recurring events including animal scoring and administration of inhibitor was done at similar times during the day. All groups were age and sex matched and were fed ad libitum with free access to water. All procedures conform with the NIH Guide for the Care and Use of Laboratory Animals. Experimental protocols were approved by the Institutional Animal Care and Use Committee of Boston Children's Hospital (Protocol number: 20-01-4096R).
DBA/1 J mice aged 8-9 weeks were immunized with an emulsion of 50 μl CFA (Chondrex, Inc.; Catalog no. 7023) and 50 μl of bovine type II collagen (Chondrex, Inc.; catalog no. 20012) injected intra-dermally into the base of the tail on day 0. On day 21, a booster immunization of type II collagen with Freund's incomplete adjuvant (IFA) (catalog no. 7002; Chondrex) was administered intra-dermally at a site proximal to the first injection site. Mice were assessed for development of arthritis using the semi-quantitative, mouse arthritis scoring system provided by Chondrex (chondrex.com). […]

[2] = test system: DBA/1 J mice with CIA; experiment: Echocardiography of LV function and geometry in CIA mice; format: in vivo, mouse; conditions: n=8
Source text: as §1, with “All procedures conform with the NIH Guide for the Care and Use of Laboratory Animals. Experimental protocols were approved by the Institutional Animal Care and Use Committee of Boston Children's Hospital (Protocol number: 20-01-4096R).” left out
B-Mode, M-mode, and Doppler echocardiography were performed in DBA/1 J mice with CIA, DBA/1 J mice with CIA treated with PAD4 inhibitor or saline administration and age-matched DBA/1 J mice at day 0, day 25, day 45 and day 56 for time-course analysis of cardiac function. […] Body temperature was regulated through a heat pad and heart rate measured with an electrocardiogram, both were kept consistent between experimental groups (37° Celsius and 400-500 bpm). Echocardiography images were recorded using a Vevo-3100 imaging system with a 25-55-MHz linear probe (MX550D; VisualSonics, Toronto, Canada). Percentage of ejection fraction was calculated in parasternal long-axis view. M-mode was measured at the papillary muscle level in the short-axis view. […]

[3] = test system: DBA/1 J mice with CIA; experiment: Immunostaining of LV cryosections (Collagen I, Ly6G/H3Cit, VWF, TGF-β, alpha smooth muscle actin); format: in vivo, mouse
Source text: as §1
Cryosections of 8-μm were fixed in 4% paraformaldehyde, permeabilized with 0.1% Triton, blocked in 3% BSA, and incubated overnight at 4° C. with the following primary antibodies: Anti-Collagen I (Abcam; ab21286); anti-Ly6G (clone 1A8; BioLegend); anti-H3Cit (Abcam; ab5103); anti-CD31 (BD Pharmingen; 553370); anti-VWF (DakoCytomation; P0226); anti-CD42b (Emfret; M040-0); anti-CD45 (Abcam; ab154885); anti-TGF beta (Abcam; ab66043); anti-alpha smooth muscle actin (Abcam; ab5694), and anti-CD68 (Abcam; ab53444). […]

[4] = test system: DBA/1 J mice with CIA; experiment: Peripheral blood counts (circulating neutrophils); format: in vivo, mouse; conditions: any timepoint
Source text: as §1, with “All groups were age and sex matched and were fed ad libitum with free access to water. All procedures conform with the NIH Guide for the Care and Use of Laboratory Animals. Experimental protocols were approved by the Institutional Animal Care and Use Committee of Boston Children's Hospital (Protocol number: 20-01-4096R).” left out
Blood was collected from anesthetized mice via the retroorbital sinus into EDTA-coated capillary tubes and was analyzed by a Hemavet 950FS (Drew Scientific) for complete blood counts. […]

[5] = test system: NET formation; experiment: Neutrophil isolation and NETosis assay; format: in vivo, mouse; conditions: CIA mice; n=4; p=0.03
Source text: as §1, with “Animals. […]” for “Animals. Experimental protocols were approved by the Institutional Animal Care and Use Committee of Boston Children's Hospital (Protocol number: 20-01-4096R).”

[6] = Body weight of CIA mice; format: in vivo, mouse; conditions: day 56, n=8
Source text: as §1, with “Animals. […]” for “Animals. Experimental protocols were approved by the Institutional Animal Care and Use Committee of Boston Children's Hospital (Protocol number: 20-01-4096R).”

[7] = test system: arthritis in a mouse model; conditions: prophylactic treatment; cited from earlier work
[8] = test system: primary tumor and metastasis; conditions: cancer; cited from earlier work

Q: With Cc1c(-c2cc3ccccc3n2Cc2ccc(F)cc2)nc2cc(C(=O)N3CCC[C@@H](N)C3)ccn12 [JBI-589, (R)-(3-aminopiperidin-1-yl)(2-(1-(4-fluorobenzyl)-1H-indol-2-yl)-3-methylimidazo[1,2-a]pyridin-7-yl)methanone] as the molecule, how does the arthritis score ([1]; Day 36) read?
A: Its arthritis score is 5±0.8.

Q: And the arthritis score ([1]; day 44, median (quartiles))?
A: Its arthritis score is 9 (7-11).

Q: What about the “effect on RA (arthritis)” value ([1]; twice daily regime (unpublished data)) of the same molecule?
A: Its value is “significantly inhibits RA”.

Q: What about the “diastolic function as reflected by the E/A ratio” value ([2]; CIA mice treated 26 consecutive days, 10 mg/kg once daily oral) of the same molecule?
A: The value was “comparable to healthy mice”.

Q: What about the “E/A ratio, higher than the placebo CIA group” value ([2]; CIA mice treated 26 consecutive days, 10 mg/kg once daily oral, p<0.0001) of the same molecule?
A: The value was 40%.

Q: What about the “systolic left ventricular function vs vehicle” value ([2]; CIA mice treated 26 days, p=0.09) of the same molecule?
A: The value was “no difference”.

Q: What about the “collagen type 1 deposition in the LV, lower than the vehicle treated control” value ([3]; CIA mice treated 26 days, n=5, p=0.02) of the same molecule?
A: The value was 5 times.

Q: What about the “myofibroblast concentration (alpha-smooth-muscle actin)” value ([3]; CIA mice, n=5, p=0.02) of the same molecule?
A: Its value is “reduced”.

Q: What about the “deposition of TGF-β in heart tissue” value ([3]; CIA mice, n=6, p=0.003) of the same molecule?
A: Its value is “reduced”.

Q: What about the “number of circulating neutrophils vs vehicle” value [4] of the same molecule?
A: Its value is “no difference”.

Q: What about the NET formation [5] of the same molecule?
A: Its NET formation is “reduced”.

Q: What about the “body weight (health parameter)” value [6] of the same molecule?
A: The value was “improved”.

Q: What about the effect on arthritis [7] of the same molecule?
A: The effect on arthritis was “alleviates arthritis”.

Q: And the neutrophil recruitment [8]?
A: Its neutrophil recruitment is “blocking neutrophil recruitment into the primary tumor and metastasis”.
